Earlier results on two substances are cited in patent US20260240991A1, “METHODS OF HEMATOPOIETIC PRECURSOR CELLS MOBILIZATION” (BioLineRx Ltd., priority 2023, published 2026).

Read-outs that look alike come from different tables or passages of the source. Bridges are numbered along the chain shown (N, C = ends). [ ]: non-standard residue; d: D form. The star is where a group is joined. 2Nal = N[C@@H](Cc1ccc2ccccc2c1)C(=O)O; Benzoyl(4-F) = O=C(c1ccc(F)cc1)*; Cit = NC(=O)NCCC[C@H](N)C(=O)O

One data set relates to PB progenitor cells. The settings on record: mice.
The test system of another data set is CD34+ cells. To be noted: patients with MS.

Consider “4F-benzoyl-Arg-Arg-Nal-Cys-Tyr-Cit-Lys-DLys-Pro-Tyr-Arg-Cit-Cys-Arg-NH2 ({Benzoyl(4-F)}-RR[2Nal]CY[Cit]K[dK]PYR[Cit]CR-NH2; disulfide 4-13 (inferred)) [Motixafortide]”, for which the tolerability entry in the data set on PB CD34+ cells (human, in vivo) was “well-tolerated”. In the data set on PB CD34+ cells (myeloma patients, 900 μg/kg), the “number of apheresis sessions required” value is recorded as 1. The “effect on mean absolute PB CD34+ cells” value in the data set with PB CD34+ cells (myeloma patients, dose escalation) was “dose-dependent increase”. For the same substance, the “mean PB CD34+ count” value in the data set with PB CD34+ cells (myeloma patients, highest dose tested 900 μg/kg) is 2.06e+07 kg⁻¹. Also, in the data set with PB CD34+ cells (myeloma patients, lower doses), the “number of apheresis sessions required” value is 2.25. In the data set with PB progenitor cells (agent alone), the “increase in PB progenitor cells” value is at most 10 fold and the “time of peak of PB progenitor cell increase following administration of the dose” value was 1 to 2 h. Further, in the data set with PB progenitor cells (combined with G-CSF), the “PB progenitor cell increase compared with Plerixafor and G-CSF” value is “higher than seen with a combination of Plerixafor and G-CSF”; the “increase in PB progenitor cells over controls” value is listed as 78 fold.
For “Natalizumab: recombinant humanized monoclonal antibody against d4 subunit of VLA-4”, in the data set on circulating CD34+ cells (MS patients, 72 hours following administration), the “maximal concentration of circulating CD34+ cells” value is given as 10.4 CD34+ cells/μL. Also, the “persistence of elevation in PB CD34+ cells following administration” value with circulating CD34+ cells (Zohren and Bonig) is “at least 1 month”. Moreover, in the data set on CD34+ cells, the “increase in PB CD34+ cells” value is listed as 7 fold and the “time of maximum absolute CD34+ count following treatment” value was 4 days. The “increase in BM CD34+ cells” value with CD34+ cells (dose-dependent) is on record as 7 fold.
